The target in experiment [1] is human recombinant 11β-HSD1 (Homo sapiens, UniProt P28845). The experiment in a line: Test for measuring human 11β-HSD1 inhibitory activity (HTRF cortisol detection). Format: biochemical. The note with it: human recombinant enzyme, 200 nM cortisone, 40 μM NADPH, pH 6.6, room temperature 1 hour; average of 3 wells. The method, then: (§1) (1) Test for Measuring Human 11β-HSD1/11β-HSD2 Inhibitory Activity
(§2) The procedure for measuring human 11β-HSD1/11β-HSD2 inhibitory activity is as follows. The enzymatic reaction and measurement were performed using a 384-well plate. The reaction was carried out by adding a test compound in various concentrations to a reaction solution containing a 10 mM phosphate buffer solution (pH 6.6), 200 nM cortisone, 40 μM reduced nicotinamide adenine dinucleotide phosphate (NADPH), and human recombinant 11β-HSD1 and then incubating the mixture at room temperature for 1 hour (10 μl/well). The test compound was dissolved in dimethyl sulfoxide (DMSO) to prepare a sample so that the DMSO concentration in the reaction solution became 1%. After the enzymatic reaction, an enzymatic inhibitory activity was measured by detecting cortisol using homogeneous time-resolved fluorescence (HTRF). XL-665-labeled cortisol containing 400 μM carbenoxolone and cryptate-labeled cortisol antibody (CIS Bio International) were added in each amount of 5 μl/well, followed by incubation at room temperature for 2 hours. Then, fluorescence intensity was measured using a fluorophotometer (product name: Discovery, PerkinElmer) and an enzymatic inhibitory activity was calculated based on two-wavelength fluorescence intensity ratio (665 nm/620 nm).
(§3) The results of the measurement were calculated as an average of the values for 3 wells obtained under the same conditions.

For experiment [2], the target named is T1, human recombinant 11β-HSD2 (Homo sapiens, UniProt P80365).
T1 sequence (P80365 1-405): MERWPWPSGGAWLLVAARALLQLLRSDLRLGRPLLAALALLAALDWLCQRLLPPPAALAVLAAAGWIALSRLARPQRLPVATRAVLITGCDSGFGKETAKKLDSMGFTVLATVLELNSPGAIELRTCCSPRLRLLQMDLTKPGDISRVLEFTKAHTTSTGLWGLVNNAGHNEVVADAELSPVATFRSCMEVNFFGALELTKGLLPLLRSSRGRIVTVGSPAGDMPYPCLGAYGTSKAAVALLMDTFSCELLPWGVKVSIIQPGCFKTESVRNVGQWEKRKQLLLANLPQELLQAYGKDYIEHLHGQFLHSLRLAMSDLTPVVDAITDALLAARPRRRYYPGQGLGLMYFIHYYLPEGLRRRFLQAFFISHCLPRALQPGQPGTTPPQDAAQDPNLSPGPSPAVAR
The experiment in a line: Test for measuring human 11β-HSD2 inhibitory activity (HTRF cortisol detection). Type of experiment: biochemical. The note with it: human recombinant enzyme, 200 nM cortisol, 200 μM NAD, pH 8.0, 37° C. 2 hours; average of 3 wells. The method, then:
as §1, §2
The measurement of 11β-HSD2 inhibitory activity was performed in the same manner as in the measurement of 11β-HSD1 inhibitory activity except for enzymatic reaction conditions. The enzymatic reaction was carried out by adding a test compound in various concentrations to a reaction solution containing a 40 mM tris-hydrochloride buffer solution (Tris-HCl) (pH 8.0), 200 nM cortisol, 200 μM nicotinamide adenine dinucleotide (NAD), and human recombinant 11β-HSD2 and then incubating the mixture at 37° C. for 2 hours (10 μl/well).
as §3

In the next experiment the test system is ob/ob mice. In words: ob/ob mouse blood-glucose lowering test. Format: in vivo. Conditions: male ob/ob mice, 30 mg/kg bid orally for 9 days, measured 12 hours after final administration, non-fasting, n=6. The method, then:
(2) ob/ob Mouse Blood-Glucose Lowering Test
A compound solution was prepared using 6% 2-hydroxypropyl-p-cyclodextrin as a solvent. Using 8 weeks-old male ob/ob mice (blood-glucose level of 300 mg or more), blood-glucose levels were measured under non-fasting conditions and then the mice were divided into groups so that the blood-glucose levels became even among the groups. The test compound was orally administered twice per day repeatedly for 9 days (30 mg/kg, bid) and a blood-sugar level was measured 12 hours after final administration (n=6). The blood-glucose level was measured by subjecting a collected blood to protein-removing treatment and then conducting colorimetric quantitative determination of a glucose level (mg/dL) in the supernatant.

Sequence of human recombinant 11β-HSD1 (P28845 whole entry): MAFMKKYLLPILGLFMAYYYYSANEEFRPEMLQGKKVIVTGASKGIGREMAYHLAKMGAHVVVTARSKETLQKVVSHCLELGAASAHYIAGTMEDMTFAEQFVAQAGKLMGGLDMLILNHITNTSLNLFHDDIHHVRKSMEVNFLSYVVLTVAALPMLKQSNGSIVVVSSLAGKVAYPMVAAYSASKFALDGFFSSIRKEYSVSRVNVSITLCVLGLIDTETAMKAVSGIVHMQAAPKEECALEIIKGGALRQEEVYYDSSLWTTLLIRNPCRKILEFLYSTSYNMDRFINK

As for `CN(C1(c2nnc(-c3ccccc3Cl)n2C)CCCC1)S(=O)(=O)c1ccccc1` [Example 115], in experiment [1], the IC50 is 0.015 µM.
For `Cn1c(-c2ccccc2Cl)nnc1C(C)(C)NC(=O)c1ccccc1` [Example 174], in experiment [1], the IC50 was 0.06 µM.
Take `CC(C)(c1cccs1)c1nnc2n1CCCCCC2` [Example 100]: the IC50 in experiment [2] is greater than 1 µM; in experiment [1], 0.0066 µM.
For `Clc1ccc(C2(c3nnc4n3CCCCC4)CCCC2)s1` [Example 62], in that order: greater than 3 µM and 0.0053 µM.
For `c1csc(C2(c3nnc4n3CCCCC4)CCCC2)c1` [Example 60], in that order: greater than 3 µM and 0.013 µM.
In the case of `c1csc(C2(c3nnc4n3CCCCCC4)CCCC2)c1` [Example 68], the IC50 in experiment [2] is greater than 1 µM; in experiment [1], 0.0044 µM. The blood-glucose lowering action in the experiment on ob/ob mice stood at 32%.
For the compound `Cn1cccc1C(C)(C)c1nnc(-c2ccccc2Cl)n1C` [Example 158], the IC50 in experiment [2] is greater than 3 µM; in experiment [1], 0.018 µM.

The record behind these values is patent US7776897B2, “Triazole derivative or salt thereof” (Astellas Pharma Inc., priority 2004, dated 2010).
